Reference: patent US20220184222A1, “BICYCLE TOXIN CONJUGATES AND USES THEREOF” (BicycleTx Limited, priority 2019, published 2022)
“And” between values parts separate entries of the source, which are not always exact repeats. Equal values may be shown once. “Also recorded” adds a separate entry of the source. Starred links: 1 amine or outer side, 2 acyl side, 3 side chain; linkers in the order of their positions; H or OH if unused. Non-standard residues stand in square brackets, D forms with d. Residues, ends and D or L forms follow the SMILES beside them. *: point of attachment. Dolaproine = CO[C@@H]([C@@H]1CCCN1)[C@@H](C)C(=O)O; Dil = CC[C@H](C)[C@H](NC)[C@@H](CC(=O)O)OC; PABC = O=C(OCc1ccc(N[*:1])cc1)[*:2]; X1 = O=C(CCCC(=O)*)ON1C(=O)CCC1=O; X2 = C[C@@H](N*)[C@@H](O)c1ccccc1; Cit = NC(=O)NCCC[C@H](N)C(=O)O; NMeV = CN[C@H](C(=O)O)C(C)C

Tested on: PC-3 xenograft
Assay: In vivo efficacy in PC-3 xenograft, female BALB/c nude mice (Example 2)
Parameters: species or system Mus Musculus
Method: The objective of the research was to evaluate the in vivo anti-tumor efficacy of BT5528 and BCY10188 in treatment of PC-3 xenograft model in BALB/c nude mice.
Each mouse was inoculated subcutaneously at the right flank with PC-3 tumor cells ([…]) in 0.2 ml of PBS for tumor development. 60 animals were randomized when the average tumor volume reached 464 mm^3. The test article administration and the animal numbers in each group were shown in the experimental design table.
1) 0.1 mg/mL solution (with 50 mM Acetate 10% sucrose pH 5 buffer) was prepared before the operation. 2) The syringe loaded with dosing solution was fixed on the Syringe Pump Machine, then a needle was bound to the pipe jointed with the syringe. 3) The injection volume (10 ml/kg, calculated based on the bodyweight), injection time (1 h for this study), and infusion rate was set to the Pump, then a quick running was conducted to check the working condition of the whole system. 4) The mouse was fixed comfortably, then the operator injected the syringe needle into the caudal vein, and fixed the mouse tail as well as the needle firmly and stably(no need anesthesia for less than 1 h) 5) Then the infusion was started, and the operator kept monitoring the dosing condition till the end.
1) 0.130 mg/mL solution (with 50 mM Acetate 10% sucrose pH 5 buffer) was prepared before the operation. 2) The pump was fully filled with the dosing solution (˜200 μl, see the hand book of the Alzet pump 2001D). 3) The animal in group 12 was anesthetized with 80 mg/kg pentobarbital sodium, and the pump was embedded under the skin of left side of mouse. 4) 26 h later, the animals were anesthetized with pentobarbital sodium, and the pump was taken out. (The infusion rate is not stable at the first 1-3 h, thus the pump was taken out at 26 h instead of 24 h to ensure that all solution was pumped-out).
The major endpoint was to see if the tumor growth could be delayed or mice could be cured. Tumor volume was measured 3 times per week in two dimensions using a caliper, and the volume was expressed in mm^3 using the formula: V=0.5 a×b^2 where a and b are the long and short diameters of the tumor, respectively. The tumor size was then used for calculations of T/C value. The T/C value (in percent) is an indication of antitumor effectiveness; T and C are the mean volumes of the treated and control groups, respectively, on a given day.
TGI was calculated for each group using the formula: TGI (%)=[1−(Ti−T0)/(Vi−V0)]×100; Ti is the average tumor volume of a treatment group on a given day, T0 is the average tumor volume of the treatment group on the day of treatment start, Vi is the average tumor volume of the vehicle control group on the same day with Ti, and V0 is the average tumor volume of the vehicle group on the day of treatment start.
Tumor growth inhibition rate of BT5528 and BCY10188 in the PC-3 xenograft model was calculated based on tumor volume measurements on day 17 after the start of treatment.

[1] = 1 mpk iv 1 h infusion qw*2 weeks, day 17
[2] = 1 mpk sc 24 h minipump qw*2 weeks, day 17

Question: CC[C@H](C)[C@@H]([C@@H](CC(=O)N1CCC[C@H]1[C@H](OC)[C@@H](C)C(=O)N[C@H](C)[C@@H](O)c1ccccc1)OC)N(C)C(=O)[C@@H](NC(=O)[C@H](C(C)C)N(C)C(=O)OCc1ccc(NC(=O)[C@H](CCCNC(N)=O)NC(=O)[C@@H](NC(=O)CCCC(=O)ON2C(=O)CCC2=O)C(C)C)cc1)C(C)C [BT5528] (X1-V[Cit][PABC][NMeV]V[Dil][Dolaproine]-X2) was tested. Which “tumor relapse after ceasing the treatment” value (1 mg/kg qw*2 weeks via intravenous bolus, intravenous infusion or subcutaneous ALZET pump) did it give?
Answer: obvious relapse 2 weeks later after ceasing the treatment

Question: What about the “efficacy across dosing paradigms” value (1 mg/kg, iv bolus (QW×2 and QW×4), 1 h iv infusion (QW×2), 24 h subcutaneous osmotic pump (QW×2)) of the same compound?
Answer: equivalent efficacy with a wide range of dosing paradigms; also recorded: comparable anti-tumor activity

Question: What about the Tumor volume (0.11 mpk iv qw*4 weeks, day 0) of the same compound?
Answer: 463 mm^3

Question: What about the Tumor volume (0.11 mpk iv qw*4 weeks, day 2) of the same compound?
Answer: 634 mm^3

Question: What about the Tumor volume (0.11 mpk iv qw*4 weeks, day 4) of the same compound?
Answer: 725 mm^3

Question: What about the Tumor volume (0.11 mpk iv qw*4 weeks, day 6) of the same compound?
Answer: 861 mm^3

Question: And the Tumor volume (0.11 mpk iv qw*4 weeks, day 8)?
Answer: 1172 mm^3

Question: What about the Tumor volume (0.11 mpk iv qw*4 weeks, day 10) of the same compound?
Answer: 1247 mm^3

Question: And the Tumor volume (0.11 mpk iv qw*4 weeks, day 13)?
Answer: 1333 mm^3

Question: And the Tumor volume (0.11 mpk iv qw*4 weeks, day 15)?
Answer: 1568 mm^3

Question: What about the T/C (0.11 mpk iv qw*4 weeks, day 17) of the same compound?
Answer: 88.1%

Question: And the TGI (0.11 mpk iv qw*4 weeks, day 17)?
Answer: 15.3%

Question: And the Tumor volume (0.11 mpk iv qw*4 weeks, day 17)?
Answer: 1780 mm^3 and 1780 ± 116 mm^3

Question: And the Tumor volume (0.33 mpk iv qw*4 weeks, day 0)?
Answer: 463 mm^3

Question: And the Tumor volume (0.33 mpk iv qw*4 weeks, day 2)?
Answer: 597 mm^3

Question: And the Tumor volume (0.33 mpk iv qw*4 weeks, day 4)?
Answer: 530 mm^3

Question: What about the Tumor volume (0.33 mpk iv qw*4 weeks, day 6) of the same compound?
Answer: 525 mm^3

Question: And the Tumor volume (0.33 mpk iv qw*4 weeks, day 8)?
Answer: 584 mm^3

Question: What about the Tumor volume (0.33 mpk iv qw*4 weeks, day 10) of the same compound?
Answer: 536 mm^3

Question: And the Tumor volume (0.33 mpk iv qw*4 weeks, day 13)?
Answer: 493 mm^3

Question: What about the Tumor volume (0.33 mpk iv qw*4 weeks, day 15) of the same compound?
Answer: 544 mm^3

Question: And the T/C (0.33 mpk iv qw*4 weeks, day 17)?
Answer: 23.9%

Question: And the TGI (0.33 mpk iv qw*4 weeks, day 17)?
Answer: 98.8%

Question: And the Tumor volume (0.33 mpk iv qw*4 weeks, day 17)?
Answer: 482 mm^3 and 482 ± 22 mm^3

Question: And the Tumor volume (1 mpk iv 1 h infusion qw*2 weeks, day 0)?
Answer: 463 mm^3

Question: What about the Tumor volume (1 mpk iv 1 h infusion qw*2 weeks, day 2) of the same compound?
Answer: 538 mm^3

Question: What about the Tumor volume (1 mpk iv 1 h infusion qw*2 weeks, day 4) of the same compound?
Answer: 539 mm^3

Question: What about the Tumor volume (1 mpk iv 1 h infusion qw*2 weeks, day 6) of the same compound?
Answer: 467 mm^3

Question: And the Tumor volume (1 mpk iv 1 h infusion qw*2 weeks, day 8)?
Answer: 399 mm^3

Question: What about the Tumor volume (1 mpk iv 1 h infusion qw*2 weeks, day 10) of the same compound?
Answer: 330 mm^3

Question: And the Tumor volume (1 mpk iv 1 h infusion qw*2 weeks, day 13)?
Answer: 260 mm^3

Question: And the Tumor volume (1 mpk iv 1 h infusion qw*2 weeks, day 15)?
Answer: 213 mm^3

Question: What about the T/C [1] of the same compound?
Answer: 10.3%

Question: What about the TGI [1] of the same compound?
Answer: 116.4%

Question: And the Tumor volume [1]?
Answer: 209 mm^3 and 209 ± 27 mm^3

Question: What about the Tumor volume (1 mpk iv qw*2 weeks, day 0) of the same compound?
Answer: 464 mm^3

Question: And the Tumor volume (1 mpk iv qw*2 weeks, day 2)?
Answer: 572 mm^3

Question: And the Tumor volume (1 mpk iv qw*2 weeks, day 4)?
Answer: 529 mm^3

Question: What about the Tumor volume (1 mpk iv qw*2 weeks, day 6) of the same compound?
Answer: 496 mm^3

Question: And the Tumor volume (1 mpk iv qw*2 weeks, day 8)?
Answer: 427 mm^3

Question: And the Tumor volume (1 mpk iv qw*2 weeks, day 10)?
Answer: 361 mm^3

Question: And the Tumor volume (1 mpk iv qw*2 weeks, day 13)?
Answer: 269 mm^3

Question: What about the Tumor volume (1 mpk iv qw*2 weeks, day 15) of the same compound?
Answer: 239 mm^3

Question: And the T/C (1 mpk iv qw*2 weeks, day 17)?
Answer: 10.6%

Question: And the TGI (1 mpk iv qw*2 weeks, day 17)?
Answer: 116.0%

Question: What about the Tumor volume (1 mpk iv qw*2 weeks, day 17) of the same compound?
Answer: 214 mm^3 and 214 ± 33 mm^3

Question: What about the Tumor volume (1 mpk iv qw*4 weeks, day 0) of the same compound?
Answer: 463 mm^3

Question: What about the Tumor volume (1 mpk iv qw*4 weeks, day 2) of the same compound?
Answer: 610 mm^3

Question: And the Tumor volume (1 mpk iv qw*4 weeks, day 4)?
Answer: 579 mm^3

Question: And the Tumor volume (1 mpk iv qw*4 weeks, day 6)?
Answer: 538 mm^3

Question: And the Tumor volume (1 mpk iv qw*4 weeks, day 8)?
Answer: 476 mm^3

Question: What about the Tumor volume (1 mpk iv qw*4 weeks, day 10) of the same compound?
Answer: 408 mm^3

Question: What about the Tumor volume (1 mpk iv qw*4 weeks, day 13) of the same compound?
Answer: 341 mm^3

Question: And the Tumor volume (1 mpk iv qw*4 weeks, day 15)?
Answer: 299 mm^3

Question: What about the T/C (1 mpk iv qw*4 weeks, day 17) of the same compound?
Answer: 14.5%

Question: And the TGI (1 mpk iv qw*4 weeks, day 17)?
Answer: 111%

Question: What about the Tumor volume (1 mpk iv qw*4 weeks, day 17) of the same compound?
Answer: 282 mm^3 and 293 mm^3 and 293 ± 66 mm^3

Question: And the Tumor volume (1 mpk sc 24 h minipump qw*2 weeks, day 0)?
Answer: 464 mm^3

Question: And the Tumor volume (1 mpk sc 24 h minipump qw*2 weeks, day 2)?
Answer: 517 mm^3

Question: What about the Tumor volume (1 mpk sc 24 h minipump qw*2 weeks, day 4) of the same compound?
Answer: 64 mm^3

Question: What about the Tumor volume (1 mpk sc 24 h minipump qw*2 weeks, day 6) of the same compound?
Answer: 480 mm^3

Question: What about the Tumor volume (1 mpk sc 24 h minipump qw*2 weeks, day 8) of the same compound?
Answer: 443 mm^3

Question: And the Tumor volume (1 mpk sc 24 h minipump qw*2 weeks, day 10)?
Answer: 393 mm^3

Question: And the Tumor volume (1 mpk sc 24 h minipump qw*2 weeks, day 13)?
Answer: 298 mm^3

Question: What about the Tumor volume (1 mpk sc 24 h minipump qw*2 weeks, day 15) of the same compound?
Answer: 249 mm^3

Question: And the T/C [2]?
Answer: 11.1%

Question: And the TGI [2]?
Answer: 115.5%

Question: And the Tumor volume [2]?
Answer: 223 mm^3 and 223 ± 46 mm^3

Question: What about the Tumor volume (3 mpk iv qw*4 weeks, day 0) of the same compound?
Answer: 464 mm^3

Question: What about the Tumor volume (3 mpk iv qw*4 weeks, day 2) of the same compound?
Answer: 566 mm^3

Question: And the Tumor volume (3 mpk iv qw*4 weeks, day 4)?
Answer: 526 mm^3

Question: And the Tumor volume (3 mpk iv qw*4 weeks, day 6)?
Answer: 462 mm^3

Question: And the Tumor volume (3 mpk iv qw*4 weeks, day 8)?
Answer: 377 mm^3

Question: And the Tumor volume (3 mpk iv qw*4 weeks, day 10)?
Answer: 320 mm^3

Question: What about the Tumor volume (3 mpk iv qw*4 weeks, day 13) of the same compound?
Answer: 249 mm^3

Question: And the Tumor volume (3 mpk iv qw*4 weeks, day 15)?
Answer: 243 mm^3

Question: What about the T/C (3 mpk iv qw*4 weeks, day 17) of the same compound?
Answer: 10.2%

Question: What about the TGI (3 mpk iv qw*4 weeks, day 17) of the same compound?
Answer: 116.7%

Question: And the Tumor volume (3 mpk iv qw*4 weeks, day 17)?
Answer: 205 mm^3 and 205 ± 14 mm^3
